The results in this text go back to patent US8981111B2 (priority 2008, dated 2015).

One data set in a line: log P (HPLC/MS data of the preparation examples). The note with it: LC-MS, method [b]: pH 2.7 with 0.1% formic acid in water and acetonitrile, linear gradient 10% to 95% acetonitrile.
Consider `CC(C)CC(=O)Nc1ccnc(CON=C(c2ccccc2)c2cnnn2C)n1` [Example 82], for which the log p is 2.77^[b]. On to `Cn1nncc1C(=NOCc1csc(NC(=O)C(C)(C)C)n1)c1ccccc1` [Example 83], for which the log p is 3.06^[b]. The same measure, in the same setting: for `CCCCCOC(=O)Nc1nc(CON=C(c2ccccc2)c2cnnn2C)cs1` [Example 84] the value was 3.76^[b]; for `CCCCCC(=O)Nc1nc(CON=C(c2ccccc2)c2cnnn2C)cs1` [Example 85], 3.44^[b]; for `CC(C)CC(=O)Nc1nc(CON=C(c2ccccc2)c2cnnn2C)cs1` [Example 86], 3^[b]. The same measure, in the same setting: for `CCCCCOC(=O)Nc1ccnc(CON=C(c2ccccc2)c2cnnn2C)n1` [Example 87] the value was 3.55^[b]; for `CCCCCCOC(=O)Nc1cccc(CON=C(c2ccccc2)c2ncnn2C)n1` [Example 88], 4.36^[b]. `CCCOC(=O)Nc1cccc(CON=C(c2ccccc2)c2ncnn2C)n1` [Example 89]: the log p is 3.15^[b]. `Cn1cncc1C(=NOCc1cccc(N2C(=O)c3ccccc3C2=O)n1)c1ccccc1` [Example 90]: the log p was 1.81^[b]. On to `CCCCOC(=O)Nc1cccc(CON=C(c2ccccc2)c2ncnn2C)n1` [Example 91], for which the log p was 3.53^[b].

Regarding `Cn1ncnc1C(=NOCc1cccc(NC(=O)OCCCCCl)n1)c1ccccc1` [Example 92], the log p was 3.39^[b]. Take `CCOC(=O)Nc1cccc(CON=C(c2ccccc2)c2ncnn2C)n1` [Example 93]: the log p was 2.71^[b]. Still for that read-out and setting: for `C#CCCOC(=O)Nc1cccc(CON=C(c2ccccc2)c2ncnn2C)n1` [Example 94] the value was 2.82^[b]. For `Cn1cncc1C(=NOCc1nccc(N)n1)c1ccccc1` [Example 95], the log p was 0.01^[b]. Consider `CC(C)CC(=O)Nc1nc(CON=C(c2ccccc2)c2ncnn2C)cs1` [Example 96], for which the log p is 2.88^[b]. As to `Cn1cncc1C(=NOCc1nccc(NC(=O)C(C)(C)C)n1)c1ccccc1` [Example 99], the log p is 1.76^[b]. Same read-out and setting: with `Cn1ncnc1C(=NOCc1csc(NC(=O)C(C)(C)C)n1)c1ccccc1` [Example 101] the figure was 2.92^[b]; with `Cn1c(C(=NOCc2nccc(NC(=O)C(C)(C)C)n2)c2ccccc2)cnc1C(=O)C(C)(C)C` [Example 102], 4.84^[b]; with `CC(C)C=C(OC(=O)CC(C)C)c1ncc(C(=NOCc2nccc(NC(=O)CC(C)C)n2)c2ccccc2)n1C` [Example 103], 4.04^[b].

In the case of `Cn1cncc1C(=NOCc1nccc(N(C(=O)C2CC2)C(=O)C2CC2)n1)c1ccccc1` [Example 104], the log p was 1.75^[b].

On to `CCCCCCCOC(=O)Nc1cccc(CON=C(c2ccccc2)c2ncnn2C)n1` [Example 106], for which the log p is 4.86^[b].

For the molecule `Cn1ncnc1C(=NOCc1cccc(NC(=O)CCc2ccccc2)n1)c1ccccc1` [Example 107], the log p was 3.33^[b]. In the case of `CC(C)C(=O)Nc1ccnc(CON=C(c2ccccc2)c2cnc(C(=O)C(C)C)n2C)n1` [Example 109], the log p is 3.62^[b].

In the case of `CC(C)=C(OC(=O)C(C)C)c1ncc(C(=NOCc2nccc(NC(=O)C(C)C)n2)c2ccccc2)n1C` [Example 110], the log p was 2.77^[b]. For the molecule `Cn1cncc1C(=NOCc1csc(N)n1)c1ccccc1` [Example 111], the log p is 0.69^[b]. Still for that read-out and setting: with `CC(C)CC(=O)Nc1ccnc(CON=C(c2ccccc2)c2cncn2C)n1` [Example 112] the figure was 1.99^[b]; with `CCCCCOC(=O)N(C)c1cccc(CON=C(c2ccccc2)c2ncnn2C)n1` [Example 113], 4.39^[b]; with `CCCCCOC(=O)Nc1ccnc(CON=C(c2ccccc2)c2cncn2C)n1` [Example 115], 2.66^[b]. `CCCCCC(=O)Nc1nc(CON=C(c2ccccc2)c2cncn2C)cs1` [Example 116]: the log p was 2.08^[b]. Still for that read-out and setting: for `Cn1cncc1C(=NOCc1csc(NC(=O)C(C)(C)C)n1)c1ccccc1` [Example 117] the value was 1.84^[b]; for `CC(C)CC(=O)Nc1nc(CON=C(c2ccccc2)c2cncn2C)cs1` [Example 118], 1.84^[b]; for `CC(C)C(=O)Nc1nc(CON=C(c2ccccc2)c2cncn2C)cs1` [Example 119], 1.63^[b].

Consider `CCCCCC(=O)Nc1cccc(CON=C(c2ccccc2)c2cncn2C)n1` [Example 120], for which the log p is 2.11^[b]. Still for that read-out and setting: with `CC(C)CC(=O)Nc1cccc(CON=C(c2ccccc2)c2cncn2C)n1` [Example 121] the figure was 1.84^[b]. In the case of `CC(C)C(=O)Nc1ccnc(CON=C(c2ccccc2)c2cncn2C)n1` [Example 124], the log p is 1.49^[b]. The same measure, in the same setting: for `CC(C)C(=O)Nc1cccc(CON=C(c2ccccc2)c2cncn2C)n1` [Example 125] the value was 1.63^[b]; for `Cn1cncc1C(=NOCc1csc(NC(=O)COc2ccccc2)n1)c1ccccc1` [Example 127], 2.01^[b]. Turning to `CCCCC(=O)Nc1ccnc(CON=C(c2ccccc2)c2cncn2C)n1` [Example 128], the log p is 1.75^[b]. On the same count and under the same terms, with `CCCC(=O)Nc1ccnc(CON=C(c2ccccc2)c2cncn2C)n1` [Example 129] the figure was 1.5^[b]. For `CCCCCCC(=O)Nc1ccnc(CON=C(c2ccccc2)c2cncn2C)n1` [Example 130], the log p was 2.2^[b]. With `CCCCCCCCCC(=O)Nc1ccnc(CON=C(c2ccccc2)c2cncn2C)n1` [Example 131], the log p was 2.98^[b]. The same measure, in the same setting: for `Cn1cncc1C(=NOCc1nccc(NC(=O)COc2ccccc2)n1)c1ccccc1` [Example 132] the value was 1.86^[b]. As to `Cn1ccnc1C(=NOCc1csc(N)n1)c1ccccc1` [Example 133], the log p is 0.75^[b]. Still for that read-out and setting: with `Cn1ncnc1C(=NOCc1cccc(CNC(=O)CCc2ccccc2)n1)c1ccccc1` [Example 134] the figure was 2.56^[b]. Still for that read-out and setting: with `CCCCC(=O)NCc1cccc(CON=C(c2ccccc2)c2ncnn2C)n1` [Example 135] the figure was 2.28^[b]. Regarding `CC(C)CC(=O)NCc1cccc(CON=C(c2ccccc2)c2ncnn2C)n1` [Example 136], the log p was 2.23^[b].

For the molecule `Cn1ncnc1C(=NOCc1cccc(CNC(=O)C(C)(C)C)n1)c1ccccc1` [Example 137], the log p is 2.28^[b].

Still in this data set, the particulars now being: method [b]: LC-MS at pH 2.7, 0.1% formic acid in water / acetonitrile, linear gradient 10% to 95% acetonitrile.
As for `Cn1ncnc1C(=NOCc1cccc(CNC(=O)Cc2ccccc2)n1)c1ccccc1` [Example 138], the log p was 2.44^[b]. `CCCCCC(=O)NCc1cccc(CON=C(c2ccccc2)c2ncnn2C)n1` [Example 140]: the log p is 2.62^[b]. As for `CCCCOC(=O)NCc1cccc(CON=C(c2ccccc2)c2ncnn2C)n1` [Example 141], the log p was 2.84^[b].

Turning to `Cn1nc(C(=NOCc2cccc(N3C(=O)c4ccccc4C3=O)n2)c2ccccc2)n(C)c1=O` [Example 142], the log p was 2.66^[b]. Same read-out and setting: with `Cn1cnnc1C(=NOCc1cccc(N2C(=O)c3ccccc3C2=O)n1)c1ccccc1` [Example 144] the figure was 2.3^[b]; with `CCCCCOC(=O)Nc1cccc(CON=C(c2ccccc2)c2nn(C)c(=O)n2C)n1` [Example 146], 3.8^[b]; with `Cn1nc(C(=NOCc2cccc(NC(=O)C(C)(C)C)n2)c2ccccc2)n(C)c1=O` [Example 147], 2.86^[b]. With `CC(C)CC(=O)Nc1cccc(CON=C(c2ccccc2)c2nn(C)c(=O)n2C)n1` [Example 148], the log p is 2.82^[b].

Take `Cn1nc(C(=NOCc2cccc(NC(=O)Cc3ccccc3)n2)c2ccccc2)n(C)c1=O` [Example 149]: the log p was 2.94^[b]. For the molecule `Cn1nc(C(=NOCc2cccc(NC(=O)CCc3ccccc3)n2)c2ccccc2)n(C)c1=O` [Example 150], the log p was 3.19^[b]. Turning to `Cn1nc(C(=NOCc2cccc(NC(=O)CC(F)(F)F)n2)c2ccccc2)n(C)c1=O` [Example 151], the log p is 2.66^[b]. The same measure, in the same setting: with `Cn1nc(C(=NOCc2cccc(NC(=O)c3cccs3)n2)c2ccccc2)n(C)c1=O` [Example 152] the figure was 2.82^[b]; with `Cn1nc(C(=NOCc2cccc(NC(=O)CCC3CCCC3)n2)c2ccccc2)n(C)c1=O` [Example 153], 3.71^[b]. On to `Cn1ccnc1C(=NOCc1nccc(NC(=O)C2CC2)n1)c1ccccc1` [Example 154], for which the log p is 1.5^[b]. On to `Cn1ccnc1C(=NOCc1nccc(NC(=O)Cc2ccccc2)n1)c1ccccc1` [Example 155], for which the log p was 2.01^[b]. Consider `Cn1cnnc1C(=NOCc1cccc(N)n1)c1ccccc1` [Example 156], for which the log p was 0.88^[b]. With `CCCCCOC(=O)Nc1cccc(CON=C(c2ccccc2)c2nncn2C)n1` [Example 157], the log p is 3.29^[b]. On to `Cn1cnnc1C(=NOCc1cccc(NC(=O)Cc2ccccc2)n1)c1ccccc1` [Example 158], for which the log p was 2.56^[b]. With `CC(C)COC(=O)Nc1cccc(CON=C(c2ccccc2)c2nncn2C)n1` [Example 159], the log p was 2.88^[b]. The same measure, in the same setting: for `Cn1cnnc1C(=NOCc1cccc(NC(=O)CC(F)(F)F)n1)c1ccccc1` [Example 160] the value was 2.28^[b]; for `Cn1ncnc1C(=NOCc1cccc(CN2C(=O)c3ccccc3C2=O)n1)c1ccccc1` [Example 161], 2.9^[b]; for `Cn1ncnc1C(=NOCc1cccc(CN)n1)c1ccccc1` [Example 162], 0.99^[b].

For the molecule `Cc1cccc(C(=NOCc2cccc(N)n2)c2ncnn2C)c1` [Example 164], the log p is 1.08^[b].

As to `Cn1nncc1C(=NOCc1csc(N)n1)c1ccccc1` [Example 165], the log p is 1.29^[b].

For the molecule `Cn1ccnc1C(=NOCc1nccc(NC(=O)C(C(=O)Cc2ccccc2)c2ccccc2)n1)c1ccccc1` (centres unmarked) [Example 166], the log p is 2.59^[b]. The same measure, in the same setting: with `Cn1cnnc1C(=NOCc1cccc(NC(=O)C(C)(C)C)n1)c1ccccc1` [Example 167] the figure was 2.44^[b]. `Cc1nc(C(=NOCc2cccc(NC(=O)C(C)(C)C)n2)c2ccccc2)cs1` [Example 172]: the log p is 3.56^[b].
